This is an account of results in patent publication US10010589B2, “Modified therapeutic agents, stapled peptide lipid conjugates, and compositions thereof” (priority 2013, dated 2018).

Assay [1] has as its target T1, human glucagon-like peptide 1 receptor (GLP-1R) (Homo sapiens, UniProt P43220).
T1 construct: expressed in transfected cells
In words: cell-based. The procedure:
(§1) HEK293 cells were infected with lent virus encoding firefly luciferase gene under the control of CRE promoter, as described in the manual (Qiagen, Netherlands) and then were selected using 1 μg/mL puromycin (Life technologies, Carlsbad) for 1 week. The survived cells were named as CRE-HEK293, expanded and then transfected with a G418 selective mammalian expression plasmid encoding human GCGR, GLP-1R, GIPR or GLP-2R. In brief, GCGR, GLP-1R, GIPR, or GLP-2R plasmid was transfected into CRE-HEK293 cells using Lipofectamine 2000 and selected with 400 μg/mL geneticin (Life technologies, Carlsbad, Calif.). Single colony stable cell lines overexpressing both CRE-luciferase and GCGR, GLP-1R, GIPR, or GLP-2R were then established for in vitro activity assays. These four stable cell lines were named as HEK293-GCGR-CRE, HEK293-GLP-1R-CRE, HEK293-GIPR-CRE, and HEK293-GLP-2R-CRE.
Cells were treated with different peptides in a dose dependent manner. On the next day, 10 μl of Bright-Glo reagent (Promega, Madison, Wis.) were added into each well and firefly luminescence was determined using an Envision multilabel plate reader (PerkinElmer, Waltham, Mass.). EC50 of each peptide was calculated using GraphPad Prism 6 software (GraphPad, San Diego, Calif.).

In assay [2] the target is T2, human glucagon receptor (GCGR) (Homo sapiens, UniProt P47871).
T2 construct: expressed in transfected cells
T2 sequence (P47871 26-477): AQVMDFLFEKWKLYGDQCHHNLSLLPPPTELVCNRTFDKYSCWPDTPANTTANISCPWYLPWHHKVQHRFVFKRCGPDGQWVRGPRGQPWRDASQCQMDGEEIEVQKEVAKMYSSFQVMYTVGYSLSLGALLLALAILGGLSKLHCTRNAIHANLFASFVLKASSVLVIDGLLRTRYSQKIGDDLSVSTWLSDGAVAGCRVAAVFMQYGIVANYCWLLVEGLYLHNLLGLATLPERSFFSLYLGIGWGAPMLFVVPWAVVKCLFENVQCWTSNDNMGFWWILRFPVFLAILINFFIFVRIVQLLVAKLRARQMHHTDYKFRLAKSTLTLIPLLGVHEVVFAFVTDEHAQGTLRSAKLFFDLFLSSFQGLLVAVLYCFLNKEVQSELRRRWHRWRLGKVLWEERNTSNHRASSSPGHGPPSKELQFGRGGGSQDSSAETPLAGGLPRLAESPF
In words: GCGR CRE luciferase assay (receptor-mediated cAMP synthesis). The format is cell-based. How it is done:
(§2) CREB responsive luciferase stable HEK 293 cell line overexpressing human glucagon receptor (GCGR), glucagon-like peptide 1 receptor (GLP-1R), Glucose-dependent insulinotropic polypeptide receptor (GIPR), or Glucagon-like peptide 2 receptor (GLP-2R) was generated as follows.
as §1
HEK293-GCGR-CRE, HEK293-GLP-1R-CRE, HEK293-GIPR-CRE, and HEK293-GLP-2R-CRE cells were seeded in a white 384-well plate at a density of 5,000 cells per well and cultured for 24 hours. Cells were treated with different peptides in a dose dependent manner. On the next day, 10 μl of Bright-Glo reagent (Promega, Madison, Wis.) were added into each well and firefly luminescence was determined using an Envision multilabel plate reader (PerkinElmer, Waltham, Mass.). EC50 of each peptide was calculated using GraphPad Prism 6 software (GraphPad, San Diego, Calif.).

Assay [3] addresses T3, human Glucose-dependent insulinotropic polypeptide receptor (GIPR) (Homo sapiens, UniProt P48546).
T3 construct: expressed in transfected cells
T3 sequence (P48546 22-466): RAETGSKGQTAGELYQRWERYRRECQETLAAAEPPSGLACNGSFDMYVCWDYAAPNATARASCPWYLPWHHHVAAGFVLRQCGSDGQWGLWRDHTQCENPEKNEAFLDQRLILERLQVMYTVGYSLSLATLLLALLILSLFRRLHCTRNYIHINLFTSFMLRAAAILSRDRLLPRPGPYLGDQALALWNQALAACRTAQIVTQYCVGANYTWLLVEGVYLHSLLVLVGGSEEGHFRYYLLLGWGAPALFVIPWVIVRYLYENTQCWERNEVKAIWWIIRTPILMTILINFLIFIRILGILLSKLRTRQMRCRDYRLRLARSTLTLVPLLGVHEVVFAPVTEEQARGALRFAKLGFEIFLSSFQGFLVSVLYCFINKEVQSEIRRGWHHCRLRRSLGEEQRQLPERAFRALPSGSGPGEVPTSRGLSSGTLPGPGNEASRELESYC
The experiment in a line: GIPR CRE luciferase assay (receptor-mediated cAMP synthesis). The format is cell-based. The procedure:
as §2
as §1, with “Single colony stable cell lines overexpressing both CRE-luciferase and GCGR, GLP-1R, GIPR, or GLP-2R were then established for in vitro activity assays. These four stable cell lines were named as HEK293-GCGR-CRE, HEK293-GLP-1R-CRE, HEK293-GIPR-CRE, and HEK293-GLP-2R-CRE.” left out
HEK293-GCGR-CRE, HEK293-GLP-1R-CRE, HEK293-GIPR-CRE, and HEK293-GLP-2R-CRE cells were seeded in a white 384-well plate at a density of 5,000 cells per well and cultured for 24 hours. […] On the next day, 10 μl of Bright-Glo reagent (Promega, Madison, Wis.) were added into each well and firefly luminescence was determined using an Envision multilabel plate reader (PerkinElmer, Waltham, Mass.). EC50 of each peptide was calculated using GraphPad Prism 6 software (GraphPad, San Diego, Calif.).

[4] abbreviates: HEK293-GLP-1R-CRE cells, luciferase readout, Table 6, read-out: GLP-1R (EC50).

The EC50 is the concentration giving half of the maximal effect.

Read-outs that look alike come from different tables or passages of the source. *1 amine or outer side, *2 acyl side, *3 side chain or, on linkers, in order; H or OH if unused. Where a SMILES comes first, the peptide text is derived from it. Bridges are numbered along the chain shown (N, C = ends). [ ]: non-standard residue; d: D form. CH2CONH(CH2)4NHCOCH2 = O=C(C[*:1])NCCCCNC(=O)C[*:2]; CH2CONHCH2CH2NHCOCH2 = O=C(C[*:1])NCCNC(=O)C[*:2]; X1 = O=C(c1ccc(C[*:1])cc1)c1ccc(C[*:2])cc1

T1 sequence (P43220 24-463): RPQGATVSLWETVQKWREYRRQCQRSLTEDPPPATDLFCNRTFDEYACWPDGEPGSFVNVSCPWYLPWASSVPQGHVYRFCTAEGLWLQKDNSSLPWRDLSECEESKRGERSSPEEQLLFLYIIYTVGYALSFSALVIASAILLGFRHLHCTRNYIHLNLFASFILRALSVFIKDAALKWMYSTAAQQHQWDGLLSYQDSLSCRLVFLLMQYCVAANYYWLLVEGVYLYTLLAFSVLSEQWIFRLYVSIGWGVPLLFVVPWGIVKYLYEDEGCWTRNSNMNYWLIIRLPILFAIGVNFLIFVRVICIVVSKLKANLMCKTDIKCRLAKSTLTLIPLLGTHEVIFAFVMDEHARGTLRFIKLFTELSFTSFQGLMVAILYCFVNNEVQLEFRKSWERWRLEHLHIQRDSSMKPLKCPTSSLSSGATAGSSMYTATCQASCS

Take `CC[C@H](C)[C@H](NC(=O)[C@H](CC(N)=O)NC(=O)[C@H](CC(N)=O)NC(=O)[C@H](CCCNC(=N)N)NC(=O)[C@H](CC(N)=O)NC(=O)[C@H](CCCNC(=N)N)NC(=O)[C@H](CCCCN)NC(=O)[C@@H](NC(=O)[C@H](CC(N)=O)NC(=O)[C@H](CCSC)NC(=O)[C@H](CC(C)C)NC(=O)[C@H](Cc1c[nH]c2ccccc12)NC(=O)[C@@H]1CSCc2ccc(cc2)C(=O)c2ccc(cc2)CSC[C@H](NC(=O)[C@H](CCC(=O)O)NC(=O)[C@H](CC(=O)O)NC(=O)[C@H](CC(C)C)NC(=O)[C@H](Cc2ccc(O)cc2)NC(=O)[C@H](CCCCN)NC(=O)[C@H](CO)NC(=O)[C@H](Cc2ccc(O)cc2)NC(=O)[C@H](CC(=O)O)NC(=O)[C@H](CO)NC(=O)[C@@H](NC(=O)[C@H](Cc2ccccc2)NC(=O)[C@@H](NC(=O)CNC(=O)[C@H](CCC(N)=O)NC(=O)[C@@H](CO)NC(=O)[C@@H](N)Cc2c[nH]cn2)[C@@H](C)O)[C@@H](C)O)C(=O)N[C@@H](C)C(=O)N[C@@H](C)C(=O)N[C@@H](CCCCN)C(=O)N[C@@H](CCC(=O)O)C(=O)N[C@@H](Cc2ccccc2)C(=O)N[C@@H]([C@@H](C)CC)C(=O)N1)[C@@H](C)O)C(=O)N[C@@H](C)C(N)=O` [mTA21] (H-H[dS]QGTFTSDYSKYLDECAAKEFICWLMNTKRNRNNIA-NH2; linker 17-24 via X1): the results for the EC50 in assay [1] (setting [4]) and in assay [2] were 120 pM and 700 pM, respectively.
As for `CC[C@H](C)[C@H](NC(=O)[C@H](CC(N)=O)NC(=O)[C@H](CC(N)=O)NC(=O)[C@H](CCCNC(=N)N)NC(=O)[C@H](CC(N)=O)NC(=O)[C@H](CCCNC(=N)N)NC(=O)[C@H](CCCCN)NC(=O)[C@@H](NC(=O)[C@H](CC(N)=O)NC(=O)[C@H](CCSC)NC(=O)[C@H](CC(C)C)NC(=O)[C@H](Cc1c[nH]c2ccccc12)NC(=O)[C@@H]1CSCC(=O)NCCNC(=O)CSC[C@H](NC(=O)[C@H](CCC(=O)O)NC(=O)[C@H](CC(=O)O)NC(=O)[C@H](CC(C)C)NC(=O)[C@H](Cc2ccc(O)cc2)NC(=O)[C@H](CCCCN)NC(=O)[C@H](CO)NC(=O)[C@H](Cc2ccc(O)cc2)NC(=O)[C@H](CC(=O)O)NC(=O)[C@H](CO)NC(=O)[C@@H](NC(=O)[C@H](Cc2ccccc2)NC(=O)[C@@H](NC(=O)CNC(=O)[C@H](CCC(N)=O)NC(=O)[C@@H](CO)NC(=O)[C@@H](N)Cc2c[nH]cn2)[C@@H](C)O)[C@@H](C)O)C(=O)N[C@@H](C)C(=O)N[C@@H](C)C(=O)N[C@@H](CCCCN)C(=O)N[C@@H](CCC(=O)O)C(=O)N[C@@H](Cc2ccccc2)C(=O)N[C@@H]([C@@H](C)CC)C(=O)N1)[C@@H](C)O)C(=O)N[C@@H](C)C(N)=O` [mTA24] (H-H[dS]QGTFTSDYSKYLDECAAKEFICWLMNTKRNRNNIA-NH2; linker 17-24 via CH2CONHCH2CH2NHCOCH2), the results for the EC50 in assay [1] (setting [4]) and in assay [2] were 200 pM and 3000 pM, respectively.
As to `CC[C@H](C)[C@@H]1NC(=O)[C@H](Cc2ccccc2)NC(=O)[C@H](CCC(=O)O)NC(=O)[C@H](CCCCN)NC(=O)[C@H](C)NC(=O)[C@H](C)NC(=O)[C@@H](NC(=O)[C@H](CCC(=O)O)NC(=O)[C@H](CC(=O)O)NC(=O)[C@H](CC(C)C)NC(=O)[C@H](Cc2ccc(O)cc2)NC(=O)[C@H](CCCCN)NC(=O)[C@H](CO)NC(=O)[C@H](Cc2ccc(O)cc2)NC(=O)[C@H](CC(=O)O)NC(=O)[C@H](CO)NC(=O)[C@@H](NC(=O)[C@H](Cc2ccccc2)NC(=O)[C@@H](NC(=O)CNC(=O)[C@H](CCC(N)=O)NC(=O)[C@@H](CO)NC(=O)[C@@H](N)Cc2c[nH]cn2)[C@@H](C)O)[C@@H](C)O)CSCC(=O)NCCCCNC(=O)CSC[C@@H](C(=O)N[C@@H](Cc2c[nH]c3ccccc23)C(=O)N[C@@H](CC(C)C)C(=O)N[C@@H](CC(C)C)C(=O)N[C@@H](CCCNC(=N)N)C(=O)N[C@@H](C)C(N)=O)NC1=O` [mTA29] (H-H[dS]QGTFTSDYSKYLDECAAKEFICWLLRA-NH2; linker 17-24 via CH2CONH(CH2)4NHCOCH2), the concentration for a half-maximal effect (EC50) in assay [1] (setting [4]) and in assay [2] was 30 pM in each case.
For the compound `CC[C@H](C)[C@H](NC(=O)[C@H](CO)NC(=O)[C@H](Cc1ccc(O)cc1)NC(=O)[C@H](CC(=O)O)NC(=O)[C@H](CO)NC(=O)[C@@H](NC(=O)[C@H](Cc1ccccc1)NC(=O)[C@@H](NC(=O)CNC(=O)[C@H](CCC(=O)O)NC(=O)[C@@H](C)NC(=O)[C@@H](N)Cc1ccc(O)cc1)[C@@H](C)O)[C@@H](C)O)C(=O)N[C@@H](Cc1ccc(O)cc1)C(=O)N[C@@H](CC(C)C)C(=O)N[C@@H](CC(=O)O)C(=O)N[C@@H](CCCCN)C(=O)N[C@H]1CSCC(=O)NCCCCNC(=O)CSC[C@@H](C(=O)N[C@@H](Cc2c[nH]c3ccccc23)C(=O)N[C@@H](CC(C)C)C(=O)N[C@@H](CC(C)C)C(=O)N[C@@H](C)C(=O)NCC(=O)NCC(=O)N2CCC[C@H]2C(=O)N[C@@H](CO)C(=O)N[C@@H](CO)C(=O)NCC(=O)N[C@@H](C)C(=O)N2CCC[C@H]2C(=O)N2CCC[C@H]2C(=O)N2CCC[C@H]2C(=O)N[C@@H](CO)C(=O)N[C@@H](CCCCN)C(N)=O)NC(=O)[C@H](C(C)C)NC(=O)[C@H](Cc2ccccc2)NC(=O)[C@H](CCC(=O)O)NC(=O)[C@H](CCCCN)NC(=O)[C@H](C)NC(=O)[C@H](C)NC1=O` [mTA40] (H-Y[dA]EGTFTSDYSIYLDKCAAKEFVCWLLAGGPSSGAPPPSK-NH2; linker 17-24 via CH2CONH(CH2)4NHCOCH2), the EC50 in assay [1] and in assay [3] was 20 pM each time.
`CC[C@H](C)[C@H](NC(=O)[C@H](CC(N)=O)NC(=O)[C@H](CC(N)=O)NC(=O)[C@H](CCCNC(=N)N)NC(=O)[C@H](CC(N)=O)NC(=O)[C@H](CCCNC(=N)N)NC(=O)[C@H](CCCCN)NC(=O)[C@@H](NC(=O)[C@H](CC(N)=O)NC(=O)[C@H](CCSC)NC(=O)[C@H](CC(C)C)NC(=O)[C@H](Cc1c[nH]c2ccccc12)NC(=O)[C@@H]1CSCC(=O)NCCCCNC(=O)CSC[C@H](NC(=O)[C@H](CCC(=O)O)NC(=O)[C@H](CC(=O)O)NC(=O)[C@H](CC(C)C)NC(=O)[C@H](Cc2ccc(O)cc2)NC(=O)[C@H](CCCCN)NC(=O)[C@H](CO)NC(=O)[C@H](Cc2ccc(O)cc2)NC(=O)[C@H](CC(=O)O)NC(=O)[C@H](CO)NC(=O)[C@@H](NC(=O)[C@H](Cc2ccccc2)NC(=O)[C@@H](NC(=O)CNC(=O)[C@H](CCC(=O)O)NC(=O)[C@@H](C)NC(=O)[C@@H](N)Cc2ccc(O)cc2)[C@@H](C)O)[C@@H](C)CC)C(=O)N[C@@H](C)C(=O)N[C@@H](C)C(=O)N[C@@H](CCCCN)C(=O)N[C@@H](CCC(=O)O)C(=O)N[C@@H](Cc2ccccc2)C(=O)N[C@@H]([C@@H](C)CC)C(=O)N1)[C@@H](C)O)C(=O)N[C@@H](C)C(N)=O` [mTA44] (H-Y[dA]EGTFISDYSKYLDECAAKEFICWLMNTKRNRNNIA-NH2; linker 17-24 via CH2CONH(CH2)4NHCOCH2): the EC50 in assay [1] (HEK293-GLP-1R-CRE cells, luciferase readout, Table 8, read-out: GLP-1R (EC50)) came to 9700 pM; in assay [3] (HEK293-GIPR-CRE cells, luciferase readout, Table 8, read-out: GIP-R (EC50)), 40 pM; in assay [2] it was 1600 pM.
